According to patent US20060135494A1, “Methods of treating injuries of the nervous system associated with hemorrhage” (priority 2002, published 2006):

How the values were obtained:
[1] = Bile acid analysis of serum and brain; type: in vivo, rat; conditions: single 100 mg/kg bw arterial dose
Description: All animals received humane care in compliance with the institute's guidelines as outlined in “Guide for the Care and Use of Laboratory Animals” prepared by the National Academy of Sciences and published by the National Institutes of Health (NIH publication no. 86-23, revised 1985). Female Sprague-Dawley rats (250-300 grams (g); Harlan Sprague-Dawley, Inc., Indianapolis, Ind.) were anesthesized with an intramuscular injection of a mixture of ketamine and xylazine and set in supine in a Kopf headholder. The right carotid artery, external and internal branches, was exposed and the distal end of the external carotid freed and retracted to line with the internal carotid. A PE-10 polyethylene tube (Becton-Dickinson, Sparks, Md.) was then introduced from the external into the internal carotid artery, and the former was ligated to hold the tube. […]
Normal controls and rats with intrastriatal hematoma were sacrificed 1, 3, and 6 hours after TUDCA or vehicle injection. […] Bile acids were assessed by gas chromatography after organic solvent extraction, purification on Lipidex 1000, liquid-solid extraction, hydrolysis, isolation by lipophilic anion exchange chromatography and conversion to methyl ester-trimethylsilyl ether derivatives (Setchell et al., Gastroenterology 1997;112:226-235). Bile acid concentrations were expressed as nmol/g of tissue or as μmol/l of serum.

[2] = tested on: phosphorylated Akt-1 Ser473, phosphorylated Bad Ser-136; assay: Immunoblotting of phosphorylated Akt-1 and phosphorylated Bad in ICH rat brain; type: in vivo
Description: All animals received humane care in compliance with the institute's guidelines as outlined in “Guide for the Care and Use of Laboratory Animals” prepared by the National Academy of Sciences and published by the National Institutes of Health (NIH publication no. 86-23, revised 1985). Female Sprague-Dawley rats (250-300 grams (g); Harlan Sprague-Dawley, Inc., Indianapolis, Ind.) were anesthesized with an intramuscular injection of a mixture of ketamine and xylazine and set in supine in a Kopf headholder. The right carotid artery, external and internal branches, was exposed and the distal end of the external carotid freed and retracted to line with the internal carotid. A PE-10 polyethylene tube (Becton-Dickinson, Sparks, Md.) was then introduced from the external into the internal carotid artery, and the former was ligated to hold the tube. TUDCA (Calbiochem-Novabiochem Corp., San Diego, Calif.) was dissolved in phosphate buffer, pH 7.4 at 400 milligrams per milliliter (mg/ml). Saline or TUDCA solution (1 milliliter per kilogram body weight (ml/kg bw)) were injected directly into the internal carotid artery, within 5 minutes. […]
Bcl-2 family, NF-κB, IκB, p-Akt, and p-Bad protein levels were determined from total protein homogenates separated by 12% sodium dodecyl sulfate polyacrylamide gel electrophoresis (SDS-PAGE). […]

[3] = tested on: traumatic brain injury (blunt head trauma); assay: TUNEL-positive cells in blunt head trauma rat model; type: in vivo
Description: UDCA and TUDCA are nontoxic, endogenously produced, bile acids that act both in vitro and in vivo as potent anti-apoptotic agents. In addition to their effects at preventing mitochondrial dysfunction by inhibiting membrane depolarization and channel formation (Rodrigues et al., J Clin Invest 1998;101:2790-2799 and Rodrigues et al., Cell Death Differ 1999;6:842-854), these molecules may also play key regulatory roles in signal transduction pathways by modulating cytosolic calcium levels and in gene expression by regulating transcription (Guicciari et al., Hepatology 2002;35:971-973). […] Administration of TUDCA almost completely abolished the appearance of TUNEL-positive cells, the activation of caspase-3-like proteases, and the histological damage of the peri-ICH region. These findings are consistent with the inhibition of neuronal apoptosis by TUDCA. Further, most neurons can be rescued by TUDCA up to 3 hours, and some up to 6 hours, from the onset of the hemorrhage, consistent with a delayed activation of neuronal cell death. Thus, at least in this model, many cells remain viable for several hours and can be recovered by an anti-apoptotic agent, provided therapy is initiated within this time window. Finally, TUDCA was also markedly effective at reducing apoptosis after brain injury in a blunt head trauma rat model. […]

## C[C@H](CCC(=O)NCCS(=O)(=O)O)[C@H]1CC[C@H]2[C@@H]3[C@@H](O)C[C@@H]4C[C@H](O)CC[C@]4(C)[C@H]3CC[C@]12C [TUDCA, tauroursodeoxycholic acid]
[1]; female, Sprague-Dawley, rat, serum, other: injected directly into the internal carotid artery, 3 hours following injection (from 0.3)
  concentration at 3 h: 10.6 µM
[1]; 3 hours
  increase in brain concentrations of the bile acid compared with vehicle-injected controls: 10 fold
[2]; brain of rats receiving TUDCA
  levels of phosphorylated Bad compared with untreated sham controls: ~2 fold
[2]; hemisphere ipsilateral to ICH, TUDCA 10-200 mg/kg bw
  expression of phosphorylated form of Akt-1: largely restored
[3]; 24-h pre-injury treatment plus treatments at head trauma and 24 h later
  reduction of apoptosis: more than 50%
[3]; 24-h pre-injury treatment plus two post-injury treatments, vehicle approximately 27
  number of TUNEL-positive cells per high power field: 12
